We go through 26 compounds from PubChem BioAssay (NCI).

Test in all cases: NCI anticancer screen, dose series, 48 h
The test system of test [1] is MCF7 breast.
The subject of test [2] is LOX IMVI melanoma.
Test [3] deals with OVCAR-5 ovarian.
Test [4] relates to RPMI-8226 leukemia.
The test system of test [5] is TK-10 renal.
The test system of test [6] is HS 578T breast.
The test system of test [7] is T-47D breast.
Test [8] concerns SN12C renal.
The test system of test [9] is HCT-15 colon.
Test [10] relates to UACC-62 melanoma.

Where “and” joins values, the source holds several entries; their conditions need not be identical. Identical values can stand only once.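 Assay format: 96-well plates, 48-hour exposure. GI50: concentration for 50% inhibition of growth. TGI marks complete inhibition of growth.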

In the case of `CC(=O)Oc1ccc2cc(Oc3ccc(Cl)cc3)c(=O)oc2c1`, the TGI in test [1], in [2], in [3], in [4], in test [5] and in [6] was over 100 µM each time. In addition, the TGI in test [7], in test [8] and in [9] was over 100 µM each time.
As to `O=C1/C(=C/c2ccccc2S)N=C(c2ccccc2)N1c1ccc2c(c1)Sc1cc(N3C(=O)/C(=C/c4ccccc4S)N=C3c3ccccc3)ccc1N2`, the TGI in test [1] worked out at 39.1 µM; in [2], 48.1 µM; in [3] it was 35.6 µM; in test [4], 46.8 µM; in [10], 42.7 µM; in test [5], 31.3 µM. Moreover, the TGI was 72.4 µM in [6], 51.3 µM in test [7], 34.3 µM in [8] and over 100 µM in test [9].
For the compound `Cc1ccc(Nc2nc(=O)[nH]c(=O)[nH]2)cc1N`, the TGI in test [1], in test [2], in [3], in test [4], in test [10] and in [5] was over 100 µM each time. The TGI in test [6], in test [7], in test [8] and in test [9] was over 100 µM in each case.
With `OC(CC(c1ccccc1)c1ccc(Cl)cc1)c1ccc(Cl)cc1` (configuration not stated), the TGI is 86.2 µM in [1]; 77.2 µM in [2]; 62 µM in test [3]; 70 µM in test [4]; over 100 µM in test [10]; over 100 µM in test [5]. Further, the TGI was over 100 µM in test [6], 88.4 µM in [7], over 100 µM in test [8] and over 100 µM in test [9].
On to `N#Cc1c(N)c(-c2ccc(Cl)cc2)c(F)c2ccccc12`, for which the TGI in [1], in test [2], in [3], in test [4], in [10] and in test [5] was over 100 µM in each case. Further, the TGI in test [6], in [7], in test [8] and in [9] was over 100 µM in each case.
In the case of `Oc1c2cccc1Cc1cccc3c1OCCOCCOCCOCCOc1c(cccc1Cc1cccc(c1O)C3)C2`, the TGI in [1], in test [2], in test [3], in [4], in test [10] and in [5] was over 100 µM throughout. In addition, the TGI in test [6], in [7], in [8] and in [9] was over 100 µM each time.
Consider `O=C1/C(=C/c2cccc(Oc3ccccc3)c2)N=C(c2ccccc2)N1c1nc2ccc(Sc3ccccc3)cc2[nH]1`, for which the TGI in [1] is over 100 µM; in [2] it was over 100 µM; in test [3], over 100 µM; in [4], 56.5 µM; in test [10], 74.9 µM; in [5], 68.4 µM. For the same compound, the TGI in test [6] is over 100 µM; in [7] it was over 100 µM; in test [8] it was 70.5 µM; in [9], over 100 µM.
On to `COc1cc(C2SCC(=O)N2NC(=O)c2ccc(NC(C)=O)cc2)cc(OC)c1OC` (configuration not stated), for which the TGI in [1], in [3], in test [4], in [10], in test [5] and in test [6] was over 100 µM each time. For the same compound, the TGI in test [7], in test [8] and in test [9] was over 100 µM throughout.
For `O=C1c2cc3c(cc2CC12Cc1cc4c(cc1C2)CCC4)CCC3`, the TGI in [1], in test [2], in test [3], in test [4], in test [5] and in test [6] was over 100 µM throughout. Also, the TGI in test [7], in test [8] and in [9] was over 100 µM each time.
Consider `CC1=NNC(N)=N/C1=C/C(Sc1ccc(Cl)cc1)c1cccs1` (configuration not stated), for which the TGI in test [1] was 20.4 µM; in test [2], over 100 µM; in [3], 35.2 µM; in test [4] it was 64.3 µM; in test [5], over 100 µM; in test [6] it was over 100 µM. The results for the TGI in test [7], in test [8] and in [9] were 62.2 µM, 99.7 µM and 30 µM, respectively.
For the compound `COc1ccc(Cn2nc(OCc3ccccn3)c3cc([N+](=O)[O-])ccc32)cc1`, the TGI in test [1], in test [2], in test [3], in test [4], in test [10] and in [5] was over 100 µM throughout. Besides, the TGI in [6], in [7], in [8] and in [9] was over 100 µM in each case.
With `CCCCC[C@H](O)[C@H](C)C=C1SCCCS1`, the TGI in test [1], in [2], in test [3], in test [4], in test [10] and in [5] was over 100 µM throughout. Besides, the TGI in test [6], in test [7], in [8] and in test [9] was over 100 µM each time.
With `C=C(CCOC)CCC1CCCCC(=C)C1=O` (configuration not stated), the TGI in test [1], in test [2], in [3], in test [4], in test [10] and in [6] was over 100 µM in each case. The TGI in test [7], in test [8] and in [9] was over 100 µM each time.
For the compound `Cn1c(N)c(/C=N/NC(=O)CC#N)c(=O)n(C)c1=O`, the TGI in [1], in [2], in test [3], in [4], in [10] and in test [5] was over 100 µM in each case. Moreover, the TGI in test [6], in test [7], in test [8] and in test [9] was over 100 µM throughout.
With `COc1ccc(C2CC(c3c(C)nn(-c4ccccc4)c3-c3ccc(C)cc3O)=NN2c2ccccc2)cc1` (configuration not stated), the TGI in test [1], in test [2], in test [3], in test [4], in test [10] and in [5] was over 100 µM each time. Besides, the TGI in test [6], in test [7], in test [8] and in test [9] was over 100 µM in each case.
Take `CN(C)c1ccc(/C=C(\NC(=O)c2ccccc2)C(=O)Nc2ccccc2C(=O)NN2C(=O)CSC2c2ccc(N(C)C)cc2)cc1` (configuration not stated): the TGI in test [1], in [2], in test [3], in test [4], in [10] and in test [6] was over 100 µM each time. In addition, the TGI in [7], in test [8] and in [9] was over 100 µM throughout.
Take `Cc1cccc(NC(=O)CC(=O)N2N=C(N3c4ccccc4Sc4ccccc43)CC2c2ccccc2)c1` (configuration not stated): the TGI in test [1], in test [3], in [4], in [10], in [5] and in test [6] was over 100 µM in each case. The TGI in [7], in test [8] and in test [9] was over 100 µM in each case.
In the case of `COc1ccc(N2C(=O)C3c4[nH]c5ccc(C)cc5c4C4CCC(C(C)C)CC4C3C2=O)cc1` (configuration not stated), the TGI in test [1], in [2], in test [3], in [4], in test [10] and in test [5] was over 100 µM in each case. Moreover, the TGI in [6], in test [7], in test [8] and in [9] was over 100 µM in each case.
As for `N#Cc1c(=O)c2cccnc2n2c1[nH]c1ccccc12`, the TGI in test [1], in [2], in test [3], in test [4], in [10] and in test [5] was over 100 µM throughout. Also, the TGI in [6] is 69.9 µM; in [7], over 100 µM; in test [8] it was over 100 µM; in test [9], over 100 µM.
Take `O=C1c2cc(Cl)ccc2-n2c(noc2=O)C2CSCN12` (configuration not stated): the TGI in test [1], in [2], in [3], in test [4], in test [10] and in test [5] was over 100 µM throughout. In addition, the TGI in test [6], in [7], in [8] and in test [9] was over 100 µM each time.
On to `Oc1ccc2ccccc2c1-c1nnc(CCCCCCCCc2nnc(-c3c(O)ccc4ccccc34)o2)o1`, for which the TGI is over 37.2 µM in [1]; 25 µM and > 100 µM in test [2]; 25 µM and > 100 µM in test [3]; 25 µM and > 100 µM in test [4]; 25 µM and > 100 µM in [10]; over 100 µM in test [5]. For the same compound, the TGI is 25 µM and > 100 µM in [6]; 25 µM and > 100 µM in [7]; 25 µM and > 100 µM in test [9]. Also, the GI50 in [2] is 0.437 µM; in test [3], 19.9 µM; in test [4], 3.56 µM; in test [10], 2.54 µM; in test [5] it was over 25 µM; in test [6] it was 19.6 µM. Moreover, the GI50 in test [7] is 1.67 µM; in test [8], 0.428 µM; in test [9], 0.563 µM.
For the compound `[N-]=[N+]=NC1(c2ccccc2)C(=O)Nc2ccccc2C1=O` (configuration not stated), the TGI in test [1] was over 100 µM; in [2], over 100 µM; in [3], over 100 µM; in [4], over 100 µM; in test [10], 76.3 µM; in test [5], over 100 µM. Moreover, the TGI in test [6] is 76.9 µM; in [7], over 100 µM; in test [8], over 100 µM; in test [9] it was over 100 µM.
Regarding `CCOC(=O)CCC(NC(=O)OCc1ccccc1)C(=O)NNC(=O)OC(C)(C)C` (configuration not stated), the TGI in [1], in [2], in test [3], in [4], in test [10] and in test [5] was over 100 µM each time. For the same compound, the TGI in [6], in test [7], in [8] and in [9] was over 100 µM in each case.
For `O=c1oc2ccccc2cc1-c1nc2ccc([N+](=O)[O-])cc2o1`, the TGI in [1], in test [2], in test [4], in test [10], in test [5] and in test [6] was over 100 µM each time. In addition, the TGI in [7], in test [8] and in test [9] was over 100 µM each time.
With `C#CC(C)(C)Oc1cc(OC)c2c(=O)c3ccccc3n(C)c2c1`, the TGI in [1] is over 100 µM; in [3] it was 98.3 µM; in test [4], 25 µM; in test [10], 32 µM; in [5] it was over 100 µM; in [6], 60.6 µM. The TGI in [7] is 27.9 µM; in [8], 49.9 µM; in test [9] it was 44.5 µM.
Regarding `CC1=NN(c2nc(N)nc(/C(C#N)=C/c3ccncc3)n2)C(C)(C)C1`, the TGI in [1], in test [2], in [4], in test [10], in [5] and in test [6] was over 100 µM throughout. The TGI in test [7] and in test [9] was over 100 µM each time.
